Assay results: ChEMBL document CHEMBL3526031, “Mechanistic studies on the absorption and disposition of scutellarin in humans: selective OATP2B1-mediated hepatic uptake is a likely key determinant for its unique pharmacokinetic characteristics” (Drug Metab Dispos, 2012)

How the values were obtained:
OATP2B1 = biological target: T1, OATP2B1 (Homo sapiens, UniProt O94956); assay: (§1) Drug uptake assessed as OATP2B1 (unknown origin)-mediated drug transport expressed in HEK293 cells after 7 mins by LC-MS/MS analysis; format: ADME, cell-based; settings: human, HEK293 cells expressing OATP2B1
T1 sequence (O94956 whole entry): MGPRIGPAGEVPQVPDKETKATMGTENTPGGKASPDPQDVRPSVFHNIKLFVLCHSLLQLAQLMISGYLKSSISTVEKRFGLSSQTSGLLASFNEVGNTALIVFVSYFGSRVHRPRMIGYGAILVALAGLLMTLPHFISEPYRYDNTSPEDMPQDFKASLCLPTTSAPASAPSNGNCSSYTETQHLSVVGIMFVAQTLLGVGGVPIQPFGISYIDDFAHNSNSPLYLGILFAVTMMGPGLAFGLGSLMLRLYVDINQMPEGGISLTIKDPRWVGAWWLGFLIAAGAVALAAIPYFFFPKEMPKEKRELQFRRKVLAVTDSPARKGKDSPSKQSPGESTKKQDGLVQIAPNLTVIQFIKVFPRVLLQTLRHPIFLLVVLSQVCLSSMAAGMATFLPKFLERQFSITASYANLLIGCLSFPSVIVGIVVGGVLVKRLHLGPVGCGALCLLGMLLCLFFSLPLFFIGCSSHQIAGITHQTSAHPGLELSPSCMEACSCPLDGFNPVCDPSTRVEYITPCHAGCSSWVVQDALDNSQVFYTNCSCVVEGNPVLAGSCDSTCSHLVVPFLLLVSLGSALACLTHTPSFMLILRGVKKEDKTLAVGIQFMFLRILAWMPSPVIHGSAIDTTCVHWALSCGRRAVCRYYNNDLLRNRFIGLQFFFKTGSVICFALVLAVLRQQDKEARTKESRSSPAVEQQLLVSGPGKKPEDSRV

[1] = biological target: T2, Solute carrier organic anion transporter family member 2B1 (Homo sapiens, UniProt O94956); assay: as §1; format: ADME, cell-based
T2 sequence (O94956 whole entry): T1 sequence (O94956 whole entry)

[2] = biological target: T2, Solute carrier organic anion transporter family member 2B1; assay: Ratio of Vmax to Km for drug uptake assessed as OATP2B1 (unknown origin)-mediated drug transport expressed in HEK293 cells by LC-MS/MS analysis; format: ADME, cell-based
[3] = biological target: T3, UDP-glucuronosyltransferase 1A8 (Homo sapiens, UniProt Q9HAW9); assay: Ratio of Vmax to Km for drug metabolism assessed as human recombinant UGT1A8-mediated formation of scutellarein-6,7-diglucuronide after 25 mins by HPLC/UV analysis; format: ADME; settings: recombinant enzyme
T3 sequence (Q9HAW9 whole entry): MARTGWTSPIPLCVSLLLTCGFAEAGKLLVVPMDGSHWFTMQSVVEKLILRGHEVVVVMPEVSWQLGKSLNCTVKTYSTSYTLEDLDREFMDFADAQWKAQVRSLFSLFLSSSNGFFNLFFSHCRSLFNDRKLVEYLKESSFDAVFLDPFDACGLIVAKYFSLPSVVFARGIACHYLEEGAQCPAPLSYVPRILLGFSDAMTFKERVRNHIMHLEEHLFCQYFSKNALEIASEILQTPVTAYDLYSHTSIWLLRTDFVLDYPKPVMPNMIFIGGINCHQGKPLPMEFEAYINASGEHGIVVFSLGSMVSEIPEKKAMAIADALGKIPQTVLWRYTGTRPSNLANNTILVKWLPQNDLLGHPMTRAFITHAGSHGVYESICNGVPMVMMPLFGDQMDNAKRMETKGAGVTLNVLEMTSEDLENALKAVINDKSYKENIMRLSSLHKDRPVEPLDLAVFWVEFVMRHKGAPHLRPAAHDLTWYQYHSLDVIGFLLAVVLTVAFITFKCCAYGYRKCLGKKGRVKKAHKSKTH

[4] = biological target: T4, UDP-glucuronosyltransferase 1A10 (Homo sapiens, UniProt Q9HAW8); assay: Ratio of Vmax to Km for drug metabolism assessed as human recombinant UGT1A10-mediated formation of scutellarein-6,7-diglucuronide after 25 mins by HPLC/UV analysis; format: ADME; settings: recombinant enzyme
T4 sequence (Q9HAW8 whole entry): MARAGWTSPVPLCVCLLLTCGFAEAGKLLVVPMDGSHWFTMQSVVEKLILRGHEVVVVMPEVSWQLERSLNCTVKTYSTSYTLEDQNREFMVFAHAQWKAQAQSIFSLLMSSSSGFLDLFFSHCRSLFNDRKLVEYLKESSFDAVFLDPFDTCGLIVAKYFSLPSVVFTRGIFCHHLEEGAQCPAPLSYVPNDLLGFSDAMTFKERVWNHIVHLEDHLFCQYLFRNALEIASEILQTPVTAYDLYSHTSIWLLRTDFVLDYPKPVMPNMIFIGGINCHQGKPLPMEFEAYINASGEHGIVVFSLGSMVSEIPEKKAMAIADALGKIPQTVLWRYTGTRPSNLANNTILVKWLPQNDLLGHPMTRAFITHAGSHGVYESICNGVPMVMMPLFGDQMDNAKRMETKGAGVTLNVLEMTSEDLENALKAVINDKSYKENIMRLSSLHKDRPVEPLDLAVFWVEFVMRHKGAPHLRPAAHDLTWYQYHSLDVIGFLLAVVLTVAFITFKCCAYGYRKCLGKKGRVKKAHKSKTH

Vmax/Km [3]	Vmax/Km [4]	SMILES	Km at 7 min (OATP2B1)	Ki [1]	Vmax ([1]; human, hek293, 7 min)	Vmax/Km [2]
		O=C(O)[C@H]1O[C@@H](Oc2cc3oc(-c4ccc(O)cc4)cc(=O)c3c(O)c2O)[C@H](O)[C@@H](O)[C@@H]1O [SCUTELLARIN]	43 µM	25.9 µM	113 pmol/min/mg	11.1 µL/min/mg
7.96 µL/min/mg	2.84 µL/min/mg	O=C(O)[C@H]1O[C@@H](Oc2c(O)cc3oc(-c4ccc(O)cc4)cc(=O)c3c2O)[C@H](O)[C@@H](O)[C@@H]1O				
